Assay results: the NIST ThermoML archive (doi:10.1016/j.jct.2012.10.011)
± gives the expanded uncertainty stated by the source.

Tests used:
[1] = for molar entropy: 101.33 kPa, Vacuum adiabatic calorimetry; for vapor or sublimation pressure: Closed cell (Static) method
[2] = Molar enthalpy of transition or fusion; conditions: Crystal; Adiabatic calorimetry
[3] = molar heat capacity at constant pressure; conditions: 101.33 kPa, Crystal, Vacuum adiabatic calorimetry

CN=C=O [methyl isocyanate]
[1]
Conditions	Triple point temperature [K]	molar entropy [J/K/mol]	vapor or sublimation pressure [kPa]
20 K, Crystal	–	2.44 ± 0.037	–
30 K, Crystal	–	6.933 ± 0.081	–
40 K, Crystal	–	12.87 ± 0.099	–
50 K, Crystal	–	19.5 ± 0.12	–
60 K, Crystal	–	26.39 ± 0.14	–
70 K, Crystal	–	33.31 ± 0.16	–
80 K, Crystal	–	40.14 ± 0.18	–
90 K, Crystal	–	46.89 ± 0.37	–
100 K, Crystal	–	53.42 ± 0.38	–
110 K, Crystal	–	59.72 ± 0.39	–
120 K, Crystal	–	65.78 ± 0.4	–
130 K, Crystal	–	71.59 ± 0.41	–
140 K, Crystal	–	77.17 ± 0.42	–
150 K, Crystal	–	82.52 ± 0.42	–
160 K, Crystal	–	87.67 ± 0.43	–
170 K, Crystal	–	92.65 ± 0.44	–
178.47 K, Liquid	–	–	0.024 ± 0.0067
180 K, Liquid	–	139.42 ± 0.51	–
184.03 K, Liquid	–	–	0.036 ± 0.0067
189.11 K, Liquid	–	–	0.04666 ± 0.0067
190 K, Liquid	–	145 ± 0.52	–
194.19 K, Liquid	–	–	0.06666 ± 0.0067
199.43 K, Liquid	–	–	0.1293 ± 0.0067
200 K, Liquid	–	150.29 ± 0.53	–
204.46 K, Liquid	–	–	0.2053 ± 0.0067
209.49 K, Liquid	–	–	0.3106 ± 0.0067
210 K, Liquid	–	155.31 ± 0.53	–
214.49 K, Liquid	–	–	0.4826 ± 0.0067
219.48 K, Liquid	–	–	0.7226 ± 0.008
220 K, Liquid	–	160.1 ± 0.54	–
224.44 K, Liquid	–	–	1.048 ± 0.012
229.43 K, Liquid	–	–	1.5 ± 0.013
230 K, Liquid	–	164.68 ± 0.55	–
234.35 K, Liquid	–	–	2.12 ± 0.015
239.21 K, Liquid	–	–	2.938 ± 0.016
240 K, Liquid	–	169.08 ± 0.55	–
244.16 K, Liquid	–	–	4.036 ± 0.019
249.07 K, Liquid	–	–	5.45 ± 0.021
250 K, Liquid	–	173.31 ± 0.56	–
253.98 K, Liquid	–	–	7.286 ± 0.027
258.88 K, Liquid	–	–	9.597 ± 0.031
260 K, Liquid	–	177.38 ± 0.57	–
263.72 K, Liquid	–	–	12.47 ± 0.037
268.59 K, Liquid	–	–	16.03 ± 0.045
270 K, Liquid	–	181.33 ± 0.57	–
273.4 K, Liquid	–	–	20.31 ± 0.055
278.1 K, Liquid	–	–	25.44 ± 0.065
280 K, Liquid	–	185.16 ± 0.58	–
282.71 K, Liquid	–	–	31.41 ± 0.079
287.27 K, Liquid	–	–	38.39 ± 0.095
290 K, Liquid	–	188.89 ± 0.58	–
296.38 K, Liquid	–	–	56.22 ± 0.13
297.07 K, Liquid	–	–	57.78 ± 0.13
300 K, Liquid	–	192.52 ± 0.59	–
Crystal, Adiabatic calorimetry	178.46 ± 0.084	–	–

Conditions	Molar enthalpy of transition or fusion [kcal/mol]
[2]	1.782 ± 0.00382

[3]
Conditions	molar heat capacity at constant pressure [J/K/mol]
14.71 K	2.971 ± 0.032
15.61 K	3.494 ± 0.035
16.68 K	4.234 ± 0.04
18.13 K	5.318 ± 0.045
19.93 K	6.837 ± 0.051
20 K	6.9 ± 0.05
21.81 K	8.41 ± 0.057
25.1 K	11.4 ± 0.06
27.08 K	13.31 ± 0.07
29.42 K	15.5 ± 0.07
30 K	16.07 ± 0.07
31.96 K	17.95 ± 0.08
34.72 K	20.64 ± 0.08
38.26 K	23.96 ± 0.09
40 K	25.53 ± 0.09
42.59 K	27.81 ± 0.1
47.01 K	31.56 ± 0.1
50 K	34.07 ± 0.11
51.57 K	35.36 ± 0.11
56.6 K	39.11 ± 0.12
60 K	41.49 ± 0.12
60.37 K	41.76 ± 0.12
62.3 K	43.18 ± 0.13
65.89 K	45.61 ± 0.13
70 K	48.2 ± 0.14
71.87 K	49.37 ± 0.14
78.77 K	53.47 ± 0.15
80 K	54.31 ± 0.15
